This is an account of results in publication PMC6988736 (Bioorganic & medicinal chemistry letters, 2017).

Experiment [1] concerns the target T1, hTRPV1 (Homo sapiens, UniProt Q8NER1). Description: hTRPV1 antagonism, inhibition of activation by capsaicin. The note with it: for inhibition at 5 µM: CHO, read-out: inhibition% at 5 μM; for hTRPV1 antagonism toward capsaicin (in words): hTRPV1 in CHO cells, capsaicin 100 nM. Format: cell-based.
The target in experiment [2] is T1, hTRPV1. Description: hTRPV1 antagonism, activation by heat. In kind it is cell-based.
The target in experiment [3] is T1, hTRPV1. The conditions noted are these: read-out: heat 45 °C, IC50; hTRPV1, activator heat 45 °C; previous lead; ref [9]; cited from earlier work.

Like-named read-outs stand apart in the source and are kept apart here.

T1 sequence (Q8NER1 whole entry): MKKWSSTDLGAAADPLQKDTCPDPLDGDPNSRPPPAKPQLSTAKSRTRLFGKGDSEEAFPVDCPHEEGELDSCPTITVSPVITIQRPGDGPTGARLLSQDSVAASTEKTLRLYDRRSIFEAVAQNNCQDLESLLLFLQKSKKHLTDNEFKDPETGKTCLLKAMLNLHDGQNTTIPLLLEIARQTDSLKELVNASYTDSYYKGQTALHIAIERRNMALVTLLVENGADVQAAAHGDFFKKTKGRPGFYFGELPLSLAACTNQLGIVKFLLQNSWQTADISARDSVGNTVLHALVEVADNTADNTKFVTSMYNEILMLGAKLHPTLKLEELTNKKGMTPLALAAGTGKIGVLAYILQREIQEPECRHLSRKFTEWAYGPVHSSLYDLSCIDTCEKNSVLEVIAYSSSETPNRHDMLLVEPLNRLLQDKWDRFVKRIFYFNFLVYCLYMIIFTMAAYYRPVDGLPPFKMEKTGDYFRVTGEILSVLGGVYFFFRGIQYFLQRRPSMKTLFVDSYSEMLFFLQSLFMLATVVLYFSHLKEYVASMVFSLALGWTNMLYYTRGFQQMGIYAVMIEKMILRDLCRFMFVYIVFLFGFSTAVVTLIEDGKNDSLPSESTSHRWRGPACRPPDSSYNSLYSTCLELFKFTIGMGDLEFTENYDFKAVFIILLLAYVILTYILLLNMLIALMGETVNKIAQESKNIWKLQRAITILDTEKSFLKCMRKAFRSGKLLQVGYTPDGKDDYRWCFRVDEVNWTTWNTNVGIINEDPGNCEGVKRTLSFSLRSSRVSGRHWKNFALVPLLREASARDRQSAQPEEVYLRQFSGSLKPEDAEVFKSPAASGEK

Broadly, the inhibition is the share of the control response that was lost under treatment. As for `CC(C)(C)c1cc(CNC(=O)C(c2cccc(F)c2)c2ccc(NS(C)(=O)=O)c(F)c2)n(-c2cccc(Cl)c2)n1` (stereo not shown) [Compound 19], the inhibition at 5 µM at hTRPV1 [1] came to 49%.
For `Cc1ccc(/C=C/c2ccc(-n3nc(C(C)(C)C)cc3CNC(=O)C(C)c3ccc(NS(C)(=O)=O)c(F)c3)cc2)cc1` (stereo not shown) [Compound 12], the “hTRPV1 antagonism toward capsaicin (in words)” value on hTRPV1 [1] was “dramatic reduction in activity”.
The IC50 is the midpoint of a concentration-inhibition curve. Regarding `C[C@H](C(=O)NCc1cc(C(C)(C)C)nn1-c1cccc(Cl)c1)c1ccc(NS(C)(=O)=O)c(F)c1` [Compound 13S], the IC50 at hTRPV1 [2] was above 5000 nM.
Consider `COc1ccc(-n2nc(C(C)(C)C)cc2CNC(=O)C(C)c2ccc(NS(C)(=O)=O)c(F)c2)cc1` (stereo not shown) [Compound 9], for which the “hTRPV1 antagonism toward capsaicin (in words)” value at hTRPV1 [1] is “dramatic reduction in activity”.
With `CC(C(=O)NCc1cc(C(C)(C)C)nn1-c1ccc(F)c(Cl)c1)c1ccc(NS(C)(=O)=O)c(F)c1` (stereo not shown) [Compound 14], the “hTRPV1 antagonism toward capsaicin (in words)” value at hTRPV1 [1] is “high potency”.
On to `C[C@H](C(=O)NCc1cc(C(C)(C)C)nn1-c1ccc(F)c(Cl)c1)c1ccc(NS(C)(=O)=O)c(F)c1` [Compound 14S], for which the “hTRPV1 antagonism toward capsaicin (in words)” value at hTRPV1 [1] is given as “high potency”.
With `CC(C)(C)c1cc(CNC(=O)C(c2ccc(NS(C)(=O)=O)c(F)c2)C2CCCCC2)n(-c2cccc(Cl)c2)n1` (stereo not shown) [Compound 17], at hTRPV1 [1], the inhibition at 5 µM amounted to 46%.
Same read-out and setting: to `Cc1ccc(C(C(=O)NCc2cc(C(C)(C)C)nn2-c2cccc(Cl)c2)c2ccc(NS(C)(=O)=O)c(F)c2)cc1` (stereo not shown) [Compound 18] belongs 12%.
For the compound `CC1CCN(c2nc(C(F)(F)F)ccc2CNC(=O)[C@@H](C)c2ccc(NS(C)(=O)=O)c(F)c2)CC1` [GRT12360], the IC50 at hTRPV1 [3] is 0.8 nM.
As for `CC(C(=O)NCc1cc(C(C)(C)C)nn1-c1ccc(C(C)(C)C)cc1)c1ccc(NS(C)(=O)=O)c(F)c1` (stereo not shown) [Compound 11], at hTRPV1 [1], the “hTRPV1 antagonism toward capsaicin (in words)” value was “dramatic reduction in activity”.
